Test results from US12084430B2, “Tricyclic urea compounds as JAK2 V617F inhibitors” (Incyte Corporation, priority 2022, dated 2024).
Like-named read-outs stand apart in the source and are kept apart here.

Key:
[1] = molecular target: T1, pseudo-kinase domain (JH2) of human V617F mutant JAK2 (Homo sapiens, UniProt O60674, F794H/V617F/W659A/W777A); test: JAK2 LanthaScreen JH2-V617F binding assay; conditions: read-out: JH2 V617F Bind IC50
T1 construct: pseudo-kinase domain (JH2, amino-acids 536-812 with 3 surface mutations W659A, W777A, F794H); His (C); purchased BPS Bioscience 79498; host or cells: baculovirus expression system
T1 sequence (O60674 536-812 V617F/W659A/W777A/F794H): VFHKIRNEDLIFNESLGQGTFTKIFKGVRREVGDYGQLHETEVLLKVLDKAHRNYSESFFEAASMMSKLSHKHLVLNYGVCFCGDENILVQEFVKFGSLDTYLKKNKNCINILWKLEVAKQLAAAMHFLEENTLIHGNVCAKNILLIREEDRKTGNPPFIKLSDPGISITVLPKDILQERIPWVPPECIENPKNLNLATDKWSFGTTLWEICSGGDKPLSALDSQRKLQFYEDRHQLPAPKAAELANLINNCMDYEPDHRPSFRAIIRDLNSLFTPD
Procedure: Example B. JAK2 LanthaScreen JH2-V617F Binding Assay
JAK2 JH2-V617F binding assay utilizes pseudo-kinase domain (JH2, amino-acids 536-812 with 3 surface mutations W659A, W777A, F794H) of human V617F mutant JAK2 expressed as C-terminal His-Avi-tagged, biotinylated protein in a baculovirus expression system (BPS Bioscience, Catalog #79498). The assay was conducted in black 384-well polystyrene plates in a final reaction volume of 20 μL. JAK2 JH2-V617F (0.26 nM) was incubated with compounds (100 nL serially diluted in DMSO) in the presence of 50 nM Fluorescent JAK2-JH2 Tracer (MedChem Express Catalog #HY-102055) and 0.25 nM Streptavidin-Tb cryptate (Cisbio Part #610SATLB) in assay buffer (50 mM Tris, pH=7.5, 10 mM MgCl2, 0.01% Brij-35, 0.1% BSA, 1 mM EGTA, 5% Glycerol and 5 mM DTT). Non-specific binding was accessed in the presence of 2 mM ATP. After incubation for 1 hour at 25° C., LanthaScreen signals were read on a PHERAstar FS plate reader (BMG LABTECH). Data was analyzed with IDBS XLfit and GraphPad Prism 5.0 software using a four parameter dose response curve to determine IC50 for each compound.

FLT3 = FLT3 enzymatic assay; type: biochemical
In short: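 Kinase reaction at room temperature in HEPES 50 mM pH 7.0 with 10 mM MgCl2, 1 mM DTT: 0.011 nM FLT3, 1 mM ATP, 500 nM biotinylated TK substrate, 0.5% DMSO. After 60 min, HTRF read as 665/620 nm ratio; IC50 from fit of percent control activity versus log concentration.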

KIT [2] = molecular target: KIT (Homo sapiens, UniProt P10721); test: KIT enzymatic assay; type: biochemical; conditions: 1 mM ATP
Sequence of KIT (Homo sapiens, UniProt P10721) (P10721 26-976, species assumed): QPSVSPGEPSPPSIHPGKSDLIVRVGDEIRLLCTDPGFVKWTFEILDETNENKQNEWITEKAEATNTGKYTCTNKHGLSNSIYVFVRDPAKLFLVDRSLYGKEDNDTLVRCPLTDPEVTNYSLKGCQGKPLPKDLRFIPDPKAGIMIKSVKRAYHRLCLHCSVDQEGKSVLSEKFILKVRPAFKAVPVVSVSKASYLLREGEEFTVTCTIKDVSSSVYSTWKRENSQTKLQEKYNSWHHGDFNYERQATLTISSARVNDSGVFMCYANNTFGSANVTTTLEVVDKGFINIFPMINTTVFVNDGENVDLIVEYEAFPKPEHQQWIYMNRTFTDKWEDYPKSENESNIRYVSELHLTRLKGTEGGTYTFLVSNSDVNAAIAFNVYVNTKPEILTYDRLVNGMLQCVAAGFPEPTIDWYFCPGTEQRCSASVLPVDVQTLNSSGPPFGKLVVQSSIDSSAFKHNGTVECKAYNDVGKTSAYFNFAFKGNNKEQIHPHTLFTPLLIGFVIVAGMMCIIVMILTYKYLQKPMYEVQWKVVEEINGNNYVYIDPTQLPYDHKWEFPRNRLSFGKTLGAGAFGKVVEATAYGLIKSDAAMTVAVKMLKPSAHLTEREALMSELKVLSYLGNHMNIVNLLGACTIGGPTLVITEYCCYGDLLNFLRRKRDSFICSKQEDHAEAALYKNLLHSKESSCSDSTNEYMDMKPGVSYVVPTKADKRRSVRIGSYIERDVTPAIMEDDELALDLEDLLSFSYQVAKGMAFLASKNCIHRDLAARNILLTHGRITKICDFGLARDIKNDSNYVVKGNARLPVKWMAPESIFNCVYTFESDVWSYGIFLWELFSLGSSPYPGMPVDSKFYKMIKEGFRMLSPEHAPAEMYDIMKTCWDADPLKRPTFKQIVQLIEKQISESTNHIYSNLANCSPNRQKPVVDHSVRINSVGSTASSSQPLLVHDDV
In short: (§1)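 0.12 nM KIT with 1 mM ATP and 500 nM biotinylated TK substrate in 50 mM HEPES pH 7.0, 10 mM MgCl2, 1 mM DTT, 0.1 mM orthovanadate, 0.5% DMSO; 60 min at room temperature. TR-FRET 665/620 nm ratio; IC50 fitted from percent control activity versus log concentration.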

KIT [3] = test: KIT enzymatic assay; type: biochemical
In short: as §1

TRKA [4] = molecular target: TRKA (Homo sapiens, UniProt P04629); test: TRKA enzymatic assay; type: biochemical; conditions: 1 mM ATP
Sequence of TRKA (Homo sapiens, UniProt P04629) (P04629 33-796, species assumed): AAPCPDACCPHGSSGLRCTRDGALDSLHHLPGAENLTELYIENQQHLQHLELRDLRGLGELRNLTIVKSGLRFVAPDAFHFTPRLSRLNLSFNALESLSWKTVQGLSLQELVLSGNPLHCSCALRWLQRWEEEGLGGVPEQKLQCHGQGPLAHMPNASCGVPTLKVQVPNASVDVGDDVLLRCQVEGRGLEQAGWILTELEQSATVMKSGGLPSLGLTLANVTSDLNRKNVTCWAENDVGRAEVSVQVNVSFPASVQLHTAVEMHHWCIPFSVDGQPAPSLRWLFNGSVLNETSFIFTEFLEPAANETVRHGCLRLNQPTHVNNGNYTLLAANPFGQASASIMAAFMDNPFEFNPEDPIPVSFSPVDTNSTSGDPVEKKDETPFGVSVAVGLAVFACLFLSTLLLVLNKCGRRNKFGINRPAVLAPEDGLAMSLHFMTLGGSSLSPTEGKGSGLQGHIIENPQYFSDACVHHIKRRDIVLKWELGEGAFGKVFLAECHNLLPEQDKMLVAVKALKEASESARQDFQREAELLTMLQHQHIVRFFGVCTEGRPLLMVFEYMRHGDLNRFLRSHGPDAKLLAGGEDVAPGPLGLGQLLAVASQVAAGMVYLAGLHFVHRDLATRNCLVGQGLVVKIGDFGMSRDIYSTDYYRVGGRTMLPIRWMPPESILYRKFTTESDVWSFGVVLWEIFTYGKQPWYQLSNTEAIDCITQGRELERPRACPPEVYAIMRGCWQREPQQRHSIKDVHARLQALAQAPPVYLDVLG
In short: (§2)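 The reaction mix held 0.58 nM TRKA, 1 mM ATP and 500 nM biotinylated TK substrate in 50 mM HEPES pH 7.0 with 10 mM MgCl2, 1 mM DTT and 0.5% DMSO, run 60 min at room temperature. Product was detected by TR-FRET as the 665/620 nm ratio. IC50 was fitted from % control activity versus log concentration, using DMSO-only and no-ATP wells as controls.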

TRKA [5] = test: TRKA enzymatic assay; type: biochemical
In short: as §2

Compound | IC50 ([1]; Table A) | IC50 ([1]; Table C) | Selectivity FLT3/JH2 V617F (FLT3) | IC50 (KIT [2]) | Selectivity KIT/JH2 V617F (KIT [3]) | IC50 (TRKA [4]) | Selectivity TRKA/JH2 V617F (TRKA [5])
[2H]C([2H])([2H])n1cc(-c2[nH]c3ncc4c(c3c2-c2ccc3c(cnn3CC(F)F)c2)n([C@@H]2CC[C@@H](NC(=O)OC)C2)c(=O)n4C([2H])([2H])[2H])c(F)n1 [Example 14, Methyl ((1R,3R)-3-(8-(1-(2,2-difluoroethyl)-1H-indazol-5-yl)-7-(3-fluoro-1-(methyl-d3)-1H-pyrazol-4-yl)-3-(methyl-d3)-2-oxo-3,6-dihydroimidazo[4,5-d]pyrrolo[2,3-b]pyridin-1(2H)-yl)cyclopentyl)carbamate] | ≤ 0.01 µM | ≤ 0.01 µM | ****** (selectivity of >12500-fold) | 0.25 to 1.25 µM | ***** (selectivity of >5000-fold to ≤12500-fold) | > 2.5 µM | ****** (selectivity of >12500-fold)
[2H]C([2H])([2H])n1ncc2cc(-c3c(-c4cn(C([2H])([2H])C([2H])([2H])[2H])nc4F)[nH]c4ncc5c(c34)n([C@@H]3CC[C@@H](NC(=O)OC)C3)c(=O)n5C([2H])([2H])[2H])ccc21 [Example 15, Methyl ((1R,3R)-3-(7-(1-(ethyl-d5)-3-fluoro-1H-pyrazol-4-yl)-3-(methyl-d3)-8-(1-(methyl-d3)-1H-indazol-5-yl)-2-oxo-3,6-dihydroimidazo[4,5-d]pyrrolo[2,3-b]pyridin-1(2H)-yl)cyclopentyl)carbamate] | ≤ 0.01 µM | ≤ 0.01 µM | ***** (selectivity of >5000-fold to ≤12500-fold) | 0.25 to 1.25 µM | **** (selectivity of >1750-fold to ≤5000-fold) | 1.25 to 2.5 µM | ****** (selectivity of >12500-fold)
[2H]C([2H])([2H])n1cc(-c2[nH]c3ncc4c(c3c2-c2ccc3c(cnn3C(C)C)c2)n([C@@H]2CC[C@@H](NC(=O)OC)C2)c(=O)n4C)c(F)n1 [Example 16, Methyl ((1R,3R)-3-(7-(3-fluoro-1-(methyl-d3)-1H-pyrazol-4-yl)-8-(1-isopropyl-1H-indazol-5-yl)-3-methyl-2-oxo-3,6-dihydroimidazo[4,5-d]pyrrolo[2,3-b]pyridin-1(2H)-yl)cyclopentyl)carbamate] | ≤ 0.01 µM | ≤ 0.01 µM | ***** (selectivity of >5000-fold to ≤12500-fold) | 1.25 to 2.5 µM | ****** (selectivity of >12500-fold) | > 2.5 µM | ****** (selectivity of >12500-fold)
[2H]C([2H])([2H])n1cc(-c2[nH]c3ncc4c(c3c2-c2cc(F)c3c(cnn3C([2H])([2H])[2H])c2)n([C@@H]2CC[C@@H](NC(=O)OC)C2)c(=O)n4C([2H])([2H])[2H])c(F)n1 [Example 17, Methyl ((1R,3R)-3-(8-(7-fluoro-1-(methyl-d3)-1H-indazol-5-yl)-7-(3-fluoro-1-(methyl-d3)-1H-pyrazol-4-yl)-3-(methyl-d3)-2-oxo-3,6-dihydroimidazo[4,5-d]pyrrolo[2,3-b]pyridin-1(2H)-yl)cyclopentyl)carbamate] | ≤ 0.01 µM | ≤ 0.01 µM | ****** (selectivity of >12500-fold) | 1.25 to 2.5 µM | ****** (selectivity of >12500-fold) | > 2.5 µM | ****** (selectivity of >12500-fold)
[2H]C([2H])([2H])n1cc(-c2[nH]c3ncc4c(c3c2-c2ccc3c(cnn3CC(F)F)c2)n([C@@H]2CC[C@@H](NC(=O)OC)C2)c(=O)n4C)c(F)n1 [Example 18, Methyl ((1R,3R)-3-(8-(1-(2,2-difluoroethyl)-1H-indazol-5-yl)-7-(3-fluoro-1-(methyl-d3)-1H-pyrazol-4-yl)-3-methyl-2-oxo-3,6-dihydroimidazo[4,5-d]pyrrolo[2,3-b]pyridin-1(2H)-yl)cyclopentyl)carbamate] | ≤ 0.01 µM | ≤ 0.01 µM | ****** (selectivity of >12500-fold) | 1.25 to 2.5 µM | ****** (selectivity of >12500-fold) | > 2.5 µM | ****** (selectivity of >12500-fold)
[2H]C([2H])([2H])n1c(=O)n([C@@H]2CC[C@@H](NC(=O)OC)C2)c2c3c(-c4ccc5c(c4)COC5(C)C)c(-c4cn(C([2H])([2H])C([2H])([2H])[2H])nc4F)[nH]c3ncc21 [Example 19, Methyl ((1R,3R)-3-(8-(1,1-dimethyl-1,3-dihydroisobenzofuran-5-yl)-7-(1-(ethyl-d5)-3-fluoro-1H-pyrazol-4-yl)-3-(methyl-d3)-2-oxo-3,6-dihydroimidazo[4,5-d]pyrrolo[2,3-b]pyridin-1(2H)-yl)cyclopentyl)carbamate] | ≤ 0.01 µM | ≤ 0.01 µM | ****** (selectivity of >12500-fold) | > 2.5 µM | ****** (selectivity of >12500-fold) | > 2.5 µM | ****** (selectivity of >12500-fold)
[2H]C([2H])([2H])n1c(=O)n([C@@H]2CC[C@@H](NC(=O)OC)C2)c2c3c(-c4ccc5c(c4)COC5(C)C)c(-c4cn(CC)nc4F)[nH]c3ncc21 [Example 20, Methyl ((1R,3R)-3-(8-(1,1-dimethyl-1,3-dihydroisobenzofuran-5-yl)-7-(1-ethyl-3-fluoro-1H-pyrazol-4-yl)-3-(methyl-d3)-2-oxo-3,6-dihydroimidazo[4,5-d]pyrrolo[2,3-b]pyridin-1(2H)-yl)cyclopentyl)carbamate] | ≤ 0.01 µM | ≤ 0.01 µM | ****** (selectivity of >12500-fold) | > 2.5 µM | ****** (selectivity of >12500-fold) | > 2.5 µM | ****** (selectivity of >12500-fold)
[2H]C([2H])([2H])n1ncc2cc(-c3c(-c4cn(C([2H])(C([2H])([2H])[2H])C([2H])([2H])[2H])nc4F)[nH]c4ncc5c(c34)n([C@@H]3CC[C@@H](NC(=O)OC)C3)c(=O)n5C([2H])([2H])[2H])ccc21 [Example 21, Methyl ((1R,3R)-3-(7-(3-fluoro-1-(propan-2-yl-d7)-1H-pyrazol-4-yl)-3-(methyl-d3)-8-(1-(methyl-d3)-1H-indazol-5-yl)-2-oxo-3,6-dihydroimidazo[4,5-d]pyrrolo[2,3-b]pyridin-1(2H)-yl)cyclopentyl)carbamate] | ≤ 0.01 µM | ≤ 0.01 µM | ****** (selectivity of >12500-fold) | 1.25 to 2.5 µM | ****** (selectivity of >12500-fold) | > 2.5 µM | ****** (selectivity of >12500-fold)
